Measurements reported in patent US10822325B2, “Human GLUT5 specific inhibitors and methods of treatment” (UNM RAINFOREST INNOVATIONS, priority 2015, dated 2020).
Numbering of substitutions follows the chain as printed. “Also recorded” adds a separate entry of the source.

Assays:
[1] = target: T1, human GLUT1 (Homo sapiens, UniProt P11166); assay: Glucose entrance counter-flow transport in GLUT1 proteoliposomes; assay type: biochemical; settings: 2 mM compound, one minute
T1 construct: Full length DNA was subcloned into pFastBac1 (Life Technologies) vector with a N-terminal hexahistidine tag; hexahistidine (N); made in house; host or cells: Sf21 insect cells (baculovirus, pFastBac1)
T1 sequence (P11166 1-492): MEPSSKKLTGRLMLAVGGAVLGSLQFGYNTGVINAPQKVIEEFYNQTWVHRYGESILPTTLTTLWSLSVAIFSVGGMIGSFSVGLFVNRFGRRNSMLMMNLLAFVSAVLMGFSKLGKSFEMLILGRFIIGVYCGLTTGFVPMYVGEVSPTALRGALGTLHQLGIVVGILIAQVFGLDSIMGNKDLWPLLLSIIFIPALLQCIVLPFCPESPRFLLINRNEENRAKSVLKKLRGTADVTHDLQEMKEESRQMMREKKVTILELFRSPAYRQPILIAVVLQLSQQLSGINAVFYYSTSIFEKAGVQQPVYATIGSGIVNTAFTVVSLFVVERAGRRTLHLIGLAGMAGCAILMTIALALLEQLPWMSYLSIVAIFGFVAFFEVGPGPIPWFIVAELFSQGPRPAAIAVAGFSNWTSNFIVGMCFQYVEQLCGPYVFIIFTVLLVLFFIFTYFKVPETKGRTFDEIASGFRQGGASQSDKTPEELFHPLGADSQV
Description: (§1) cDNAs of GLUT1, 3, 4 and 5 were purchased from Open Biosystems (GE Healthcare). cDNAs of GLUT2 was a gift from Prof. Graeme Bell at University of Chicago. Full length DNA was subcloned into pFastBac1 (Life Technologies) vector with a N-terminal hexahistidine tag. Bacmids were generated in DH10Bac E. coli cells (Life Technologies). Baculoviruses were produced using Cellfectin II Reagent and amplified in Sf21 insect cells (Life Technologies). Cells were maintained at 26° C., and P1 (10^6 pfu/mL) was collected from infected cells after 72 hours. SF21 cells were propagated in HyClone SFX-Insect media (GE Healthcare), supplemented with 5% fetal bovine serum (Biowest), 4.8 mM glutamine, antibiotics (100 units/mL Penicillin G and 100 μg/mL streptomycin sulfate) and amphotericin B (2.5 μg/mL). […]
(§2) For the entrance counterflow transport in proteoliposomes, the assay was started by the addition of 5 μL proteoliposomes solution (OD600 nm ˜30) to 200 μL, assay solution, containing 10 μM ^14C-radiolabeled glucose (for GLUT1 wild-type or F379H mutant and GLUT2-4) or fructose (for GLUT5 wild-type or H387F mutant and GLUT2) (Moravek Biochemicals) in 100 mM KPi buffer at pH 7.5. After one minute (or different specified time points when the time-dependent counter-flow transport activity was measured), the transport was stopped with ice-chilled quench buffer [0.1 M KPi (pH 5.5) and 0.1 M lithium chloride].

[2] = target: T2, GLUT1F379H (Homo sapiens, UniProt P11166, F379H); assay: Glucose entrance counter-flow transport in GLUT1F379H mutant proteoliposomes; assay type: biochemical; settings: 2 mM compound
T2 construct: Full length DNA was subcloned into pFastBac1 (Life Technologies) vector with a N-terminal hexahistidine tag; hexahistidine (N); made in house; host or cells: Sf21 insect cells (baculovirus, pFastBac1)
T2 sequence (P11166 1-492 F379H): T1 sequence (P11166 1-492) with F379H
Description: as §1, §2

SMILES | effect on GLUT1 glucose transport [1] | effect on GLUT1F379H glucose transport [2]
CS(=O)(=O)c1ccc(Nc2ccc3c(c2)OCO3)c([N+](=O)[O-])c1 [MSNBA, N-[4-(methylsulfonyl)-2-nitrophenyl]-1,3-benzodioxol-5-amine] | did not affect; also recorded: did not influence | remained insensitive; also recorded: remained unaffected
O=C(CCc1ccc(O)cc1)c1c(O)cc(O)cc1O [phloretin, reference compound] | inhibited | no longer inhibited; also recorded: ceased to inhibit
